Source: patent US20220235043A1, “SUBSTITUTED SULFONAMIDE PYRROLOPYRIDINES AS JAK INHIBITORS” (ACLARIS THERAPEUTICS, INC., priority 2019, published 2022)

Tests used:
JAK1 = biological target: T1, JAK1 (Homo sapiens, UniProt P23458); test: JAK1 enzyme activity assay (Thermo Fisher Selectscreen, Z-lyte); assay type: biochemical; details: read-out: JAK1 Inhibition IC50
T1 construct: purchased Thermo Fisher Scientific (SelectScreen service)
Experimental: (§1) The inhibitory potency of candidate compounds of JAK1, JAK2, and Tyk-2 was done at Thermo Fisher Scientific in their Selectscreen using a Z-lyte assay. Following are the assay details for each enzyme.
JAK1: The 2×JAK-enzyme/Tyr 06 mixture is prepared in 50 mM HEPES pH 6.5, 0.01% BRIJ-35, 10 mM MgCl2, 1 mM EGTA, 0.02% NaN3. The final 10 μL of the Kinase Reaction consists of 21.2-91.5 ng JAK1 and 2 μM Tyr 06 in 50 mM HEPES pH 7.0, 0.01% BRIJ-35, 10 mM MgCl2, 1 mM EGTA, 0.01% NaN3. After the one hour Kinase Reaction incubation, 5 μL of a 1:128 dilution of Development Reagent is added.
(§2) Data reduction for JAK1, JAK2 and TYK2 is done the same, independent of the enzyme run. In summary, background signal is defined in the absence of enzyme and uninhibited signal is defined in the presence of vehicle (2% DMSO) alone. Compounds were evaluated in an 11 point dose-response ranging from […] to 0.34 nM. IC50 values of compounds are determined using a 4 parameter logistical fit of emission ratio as a function of the concentration of compound.

Tyk-2 = biological target: T2, Tyk-2 (Homo sapiens, UniProt P29597); test: Tyk-2 enzyme activity assay (Thermo Fisher Selectscreen, Z-lyte); assay type: biochemical; details: read-out: Tyk-2 Inhibition IC50
T2 construct: purchased Thermo Fisher Scientific (SelectScreen service)
T2 sequence (P29597 whole entry): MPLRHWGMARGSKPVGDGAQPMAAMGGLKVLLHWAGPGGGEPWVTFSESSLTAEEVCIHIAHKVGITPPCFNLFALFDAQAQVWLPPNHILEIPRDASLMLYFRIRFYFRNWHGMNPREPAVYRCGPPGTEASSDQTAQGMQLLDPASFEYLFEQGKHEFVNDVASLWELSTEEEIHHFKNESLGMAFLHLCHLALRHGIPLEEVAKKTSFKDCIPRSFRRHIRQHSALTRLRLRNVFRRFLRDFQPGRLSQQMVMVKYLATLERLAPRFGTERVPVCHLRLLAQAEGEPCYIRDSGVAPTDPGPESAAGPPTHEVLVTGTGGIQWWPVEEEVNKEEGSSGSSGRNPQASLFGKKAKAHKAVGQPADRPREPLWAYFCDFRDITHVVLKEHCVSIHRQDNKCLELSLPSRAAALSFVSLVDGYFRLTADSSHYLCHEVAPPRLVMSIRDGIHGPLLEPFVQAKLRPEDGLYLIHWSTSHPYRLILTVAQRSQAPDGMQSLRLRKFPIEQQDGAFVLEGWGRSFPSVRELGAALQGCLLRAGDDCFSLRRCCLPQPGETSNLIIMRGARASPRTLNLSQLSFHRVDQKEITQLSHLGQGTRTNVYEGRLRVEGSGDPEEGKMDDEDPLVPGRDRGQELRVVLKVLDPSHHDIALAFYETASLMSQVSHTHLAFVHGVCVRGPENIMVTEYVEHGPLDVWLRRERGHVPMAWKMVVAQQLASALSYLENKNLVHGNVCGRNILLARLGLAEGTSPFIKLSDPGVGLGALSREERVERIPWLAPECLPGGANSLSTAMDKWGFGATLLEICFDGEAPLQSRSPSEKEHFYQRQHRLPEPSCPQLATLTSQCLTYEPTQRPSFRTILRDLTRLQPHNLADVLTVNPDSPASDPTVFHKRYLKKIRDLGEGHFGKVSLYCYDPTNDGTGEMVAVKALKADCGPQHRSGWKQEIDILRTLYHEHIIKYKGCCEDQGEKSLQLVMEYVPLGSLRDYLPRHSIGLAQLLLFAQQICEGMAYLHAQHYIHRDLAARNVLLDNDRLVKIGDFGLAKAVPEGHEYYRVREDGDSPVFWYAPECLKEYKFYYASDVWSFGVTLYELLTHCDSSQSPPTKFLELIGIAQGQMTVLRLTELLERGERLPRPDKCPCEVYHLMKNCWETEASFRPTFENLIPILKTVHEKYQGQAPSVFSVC
Experimental: as §1
TYK2: The 2×TYK2/Tyr 03 mixture is prepared in 50 mM HEPES pH 6.5, 0.01% BRIJ-35, 10 mM MgCl2, 1 mM EGTA, 0.02% NaN3. The final 10 μL Kinase Reaction consists of 3.75-15 ng TYK2 and 2 μM Tyr 03 in 50 mM HEPES pH 7.0, 0.01% BRIJ-35, 10 mM MgCl2, 1 mM EGTA, 0.01% NaN3. After the one hour KinaseReaction incubation, 5 μL of a 1:4096 dilution of Development Reagent A is added.
as §2

[1] = tested on: IL-2 stimulated STAT5 phosphorylation on Tyr694 (JAK1/3); test: JAK1/3 cellular target modulation: IL-2 stimulated phospho-STAT5 in human PBMC; assay type: cell-based; details: IL-2 25 ng/ml, read-out: IL2-STAT5 IC50
Description: (§3) Target modulation was based upon the ability of a compound to inhibit JAK isoform specific phosphorylation of selected substrates. IL-2 stimulated STAT5 phosphorylation on Tyr694 was used to assess JAK1/3 compound selectivity. GM-CSF stimulated STAT5 phosphorylation on Tyr694 was used to assess JAK2 compound selectivity. IFNγ stimulated STAT1 phosphorylation on Tyr701 was used to assess JAK1/2 compound selectivity. IL-12 stimulated STAT4 phosphorylation on Tyr693 was used to assess JAK2/TYK2 compound selectivity. For all four assays, human PBMC from frozen stocks were thawed, pelleted, resuspended in complete media (90% RPMI, 10% heat inactivated FBS, 10 mM HEPES, 47 μM 2-ME, pen/strep) and placed in wells of a 96 well V-bottom plate at 200,000 per well in 120 μl complete media. Compounds were added as 15 μl per well of 10× working stock solutions in complete media with 1% DMSO (or medium with 1% DMSO for controls) and placed on a plate shaker in a 37° C. incubator with 5% CO2 for 1 hour with gentle shaking (setting of 3). Stimulation used the addition of soluble cytokines. For the JAK1/3 phospho-STAT5 assay, 15 μl of 10× working stock recombinant human IL-2 was added to a final concentration of 25 ng/ml. For the JAK2 phospho-STAT5 assay, 15 μl of 10× working stock recombinant human GM-CSF was added to a final concentration of 5 ng/ml. For the JAK1/2 phospho-STAT1 assay, 15 μl of 10× working stock of recombinant human IFNγ was added to a final concentration of 10 ng/ml. For the JAK2/TYK2 phospho-STAT4 assay, 15 μl of 10× working stock of recombinant human IL-12 was added to a final concentration of 1.7 ng/ml. Plates were then placed back on the plate shaker in the incubator for an additional 5, 5, 10, and 25 minutes respectively upon which the plates were removed from the incubator, sealed with a plate sealer and the cells pelleted at 400×g for 5 minutes. After pelleting, the media was removed by aspiration and the cells were lysed in assay specific cell lysis buffer. The levels of phospho-STAT5 were determined using a Phospho (Tyr694)STAT5a,b Whole Cell Lysate kit from Meso Scale Discovery. Levels of phospho-STAT1 were determined using a CST-PathScan Phospho-STAT1 (Tyr701) Sandwich ELISA kit. Levels of phospho-STAT4 were determined using a Phospho-STAT4 (Tyr693) Whole Cell Lysate kit from Meso Scale Discovery.

JAK2 = biological target: T3, JAK2 (Homo sapiens, UniProt O60674); test: JAK2 enzyme activity assay (Thermo Fisher Selectscreen, Z-lyte); assay type: biochemical; details: read-out: JAK2 Inhibition IC50
T3 construct: purchased Thermo Fisher Scientific (SelectScreen service)
T3 sequence (O60674 whole entry): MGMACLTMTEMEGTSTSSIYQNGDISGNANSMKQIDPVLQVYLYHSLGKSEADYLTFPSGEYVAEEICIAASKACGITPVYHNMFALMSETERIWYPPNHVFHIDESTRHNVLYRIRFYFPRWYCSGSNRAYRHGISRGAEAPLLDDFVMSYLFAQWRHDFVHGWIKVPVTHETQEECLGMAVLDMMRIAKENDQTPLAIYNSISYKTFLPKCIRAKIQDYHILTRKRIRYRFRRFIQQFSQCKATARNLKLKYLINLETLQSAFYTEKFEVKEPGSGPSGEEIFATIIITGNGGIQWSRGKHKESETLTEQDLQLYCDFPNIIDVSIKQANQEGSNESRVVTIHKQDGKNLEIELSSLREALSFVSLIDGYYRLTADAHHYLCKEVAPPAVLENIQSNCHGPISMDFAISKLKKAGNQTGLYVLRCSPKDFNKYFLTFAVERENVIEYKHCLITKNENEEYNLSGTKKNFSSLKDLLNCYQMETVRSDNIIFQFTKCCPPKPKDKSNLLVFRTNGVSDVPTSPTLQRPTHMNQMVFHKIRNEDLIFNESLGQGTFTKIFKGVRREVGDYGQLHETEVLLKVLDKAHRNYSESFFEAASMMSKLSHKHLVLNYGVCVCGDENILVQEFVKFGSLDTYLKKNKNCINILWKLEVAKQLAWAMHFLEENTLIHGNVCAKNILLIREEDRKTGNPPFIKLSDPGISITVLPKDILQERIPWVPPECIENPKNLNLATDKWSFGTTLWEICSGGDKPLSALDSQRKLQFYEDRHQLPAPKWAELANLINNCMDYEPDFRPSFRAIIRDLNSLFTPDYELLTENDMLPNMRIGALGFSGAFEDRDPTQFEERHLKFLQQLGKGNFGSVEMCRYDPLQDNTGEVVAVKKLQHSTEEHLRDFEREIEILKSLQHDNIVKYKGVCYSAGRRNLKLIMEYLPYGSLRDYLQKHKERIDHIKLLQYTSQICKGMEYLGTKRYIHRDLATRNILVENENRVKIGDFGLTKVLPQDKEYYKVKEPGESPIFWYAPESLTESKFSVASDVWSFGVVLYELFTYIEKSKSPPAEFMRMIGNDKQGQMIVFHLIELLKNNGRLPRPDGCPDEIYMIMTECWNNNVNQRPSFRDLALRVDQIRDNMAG
Experimental: as §1
JAK2: The 2×JAK2/Tyr 06 mixture is prepared in 50 mM HEPES pH 7.5, 0.01% BRIJ-35, 10 mM MgCl2, 1 mM EGTA. The final 10 μL Kinase Reaction consists of 0.12-0.5 ng JAK2 and 2 μM Tyr 06 in 50 mM HEPES pH 7.5, 0.01% BRIJ-35, 10 mM MgCl2, 1 mM EGTA. After the one hour Kinase Reaction incubation, 5 μL of a 1:128 dilution of Development Reagent A is added.
as §2

JAK3 (a.a. 781-1124) = biological target: T4, JAK3 (a.a. 781-1124) (Homo sapiens, UniProt P52333); test: JAK3 enzyme activity assay (SRCtide phosphorylation, Caliper); assay type: biochemical; details: 1 uM ATP; read-out: JAK3 Inhibition IC50
T4 construct: JAK3 (a.a. 781-1124, ThermoFisher); purchased ThermoFisher
T4 sequence (P52333 781-1124): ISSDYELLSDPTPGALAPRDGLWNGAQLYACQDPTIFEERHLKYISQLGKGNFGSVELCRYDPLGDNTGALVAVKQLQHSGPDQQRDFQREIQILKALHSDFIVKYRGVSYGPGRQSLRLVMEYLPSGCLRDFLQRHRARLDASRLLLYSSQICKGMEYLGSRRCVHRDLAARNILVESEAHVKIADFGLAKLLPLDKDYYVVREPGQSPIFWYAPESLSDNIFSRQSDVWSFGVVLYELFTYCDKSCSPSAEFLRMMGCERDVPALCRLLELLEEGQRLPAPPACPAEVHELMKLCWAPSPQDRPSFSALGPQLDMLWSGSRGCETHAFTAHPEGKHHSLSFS
Experimental: The activity of JAK3 (a.a. 781-1124, ThermoFisher) was quantified by measuring the phosphorylation of SRCtide (FAM-GEEPLYWSFPAKKK-NH2). Kinase reactions were run in a 384-well Greiner plate with 2% final DMSO concentration under the buffer conditions of 20 mM HEPES, pH 7.5, 10 mM MgCl2, 0.01% BSA, and 0.0005% Tween-20. The kinase reaction components were 2.5 nM JAK3, 1 μM SRCtide peptide and 1 uM ATP. Examples were tested in dose-response starting at […] (11 concentrations, 3-fold serial dilution, duplicate reactions). The reactions were incubated at room temperature for 40 minutes, then stopped by adding a 1:1 volume of 30 mM EDTA in 20 mM HEPES, pH 7.5 (15 mM EDTA final). After the reaction was stopped, the phosphorylated and unphosphorylated peptides were separated and quantified using a Caliper LC3000/EZ-Reader system and HTS Well Analyzer Software (Caliper, A PerkinElmer Company, Hopkinton, Mass.). GraFit (Erithacus Software Ltd., Horley, U.K.) was used to calculate inhibitor potency by fitting dose-response data to the 4-parameter logistical IC50 equation.

[2] = tested on: IFNγ stimulated STAT1 phosphorylation on Tyr701 (JAK1/2); test: JAK1/2 cellular target modulation: IFNγ stimulated phospho-STAT1 in human PBMC; assay type: cell-based; details: IFNγ 10 ng/ml, read-out: Infγ-STAT1 IC50
Description: as §3

[3] = tested on: IL-12 stimulated STAT4 phosphorylation on Tyr693 (JAK2/TYK2); test: JAK2/TYK2 cellular target modulation: IL-12 stimulated phospho-STAT4 in human PBMC; assay type: cell-based; details: IL-12 1.7 ng/ml, read-out: IL12-STAT4 IC50
Description: as §3

T1 sequence (P23458 whole entry): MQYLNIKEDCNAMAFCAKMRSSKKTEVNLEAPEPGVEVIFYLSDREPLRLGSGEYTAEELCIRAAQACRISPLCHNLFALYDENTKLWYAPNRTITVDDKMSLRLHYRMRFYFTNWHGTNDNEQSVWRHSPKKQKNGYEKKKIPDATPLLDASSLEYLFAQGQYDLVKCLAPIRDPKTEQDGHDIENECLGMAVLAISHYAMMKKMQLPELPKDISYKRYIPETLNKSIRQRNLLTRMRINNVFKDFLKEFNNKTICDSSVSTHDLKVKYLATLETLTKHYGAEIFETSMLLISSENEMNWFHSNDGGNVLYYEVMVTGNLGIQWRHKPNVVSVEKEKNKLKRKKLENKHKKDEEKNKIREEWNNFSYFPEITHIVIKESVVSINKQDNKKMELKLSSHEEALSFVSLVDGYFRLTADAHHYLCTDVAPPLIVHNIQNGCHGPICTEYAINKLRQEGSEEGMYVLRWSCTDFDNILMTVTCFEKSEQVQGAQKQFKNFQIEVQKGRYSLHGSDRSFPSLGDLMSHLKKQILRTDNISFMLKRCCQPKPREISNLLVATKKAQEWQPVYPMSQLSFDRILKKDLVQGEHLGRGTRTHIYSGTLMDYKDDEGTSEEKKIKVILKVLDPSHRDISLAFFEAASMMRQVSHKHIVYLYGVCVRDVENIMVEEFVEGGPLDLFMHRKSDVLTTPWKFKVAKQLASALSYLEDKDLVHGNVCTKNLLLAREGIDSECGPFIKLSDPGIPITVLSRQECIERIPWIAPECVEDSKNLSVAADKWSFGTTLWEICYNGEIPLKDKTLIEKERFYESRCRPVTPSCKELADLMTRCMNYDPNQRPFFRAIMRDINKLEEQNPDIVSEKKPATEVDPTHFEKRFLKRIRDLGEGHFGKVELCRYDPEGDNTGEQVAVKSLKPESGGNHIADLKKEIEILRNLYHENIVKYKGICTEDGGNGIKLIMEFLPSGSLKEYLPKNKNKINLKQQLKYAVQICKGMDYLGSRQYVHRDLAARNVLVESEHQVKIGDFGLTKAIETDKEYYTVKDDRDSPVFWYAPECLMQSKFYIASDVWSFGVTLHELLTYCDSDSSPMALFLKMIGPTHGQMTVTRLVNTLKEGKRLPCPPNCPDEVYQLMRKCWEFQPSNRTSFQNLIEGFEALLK

Row | SMILES | IC50 (JAK1) [nM] | IC50 (Tyk-2) [nM] | IC50 [1] [nM] | IC50 (JAK2) [nM] | IC50 (JAK3 (a.a. 781-1124)) [nM] | IC50 [2] [nM] | IC50 [3] [nM]
1 | CCCS(=O)(=O)N[C@H]1C[C@@H](Nc2c(-c3cc(C(=O)NC)ccn3)cnc3[nH]ccc23)C1 [Example 68, N-methyl-2-(4-(((1s,3s)-3-(propylsulfonamido)cyclobutyl)amino)-1H-pyrrolo[2,3-b]pyridin-5-yl)isonicotinamide] | 10 to 100 | 100 to 1000 | > 1000 | 100 to 1000 | 10 to 100 | – | –
2 | CCOC(=O)c1cnc2[nH]ccc2c1N[C@H]1C[C@H](NS(=O)(=O)c2cc(C#N)ccn2)C1 [Example 4, ethyl 4-(((1r,3r)-3-((4-cyanopyridine)-2-sulfonamido)cyclobutyl)amino)-1H-pyrrolo[2,3-b]pyridine-5-carboxylate] | 10 to 100 | 100 to 1000 | > 1000 | 10 to 100 | 10 to 100 | – | –
3 | CNC(=O)c1ccnc(-c2cnc3[nH]ccc3c2N[C@H]2C[C@@H](NS(=O)(=O)c3cc(C#N)ccn3)C2)c1 [Example 67, 2-(4-(((1s,3s)-3-((4-cyanopyridine)-2-sulfonamido)cyclobutyl)amino)-1H-pyrrolo[2,3-b]pyridin-5-yl)-N-methylisonicotinamide] | ≤ 10 | 10 to 100 | 100 to 1000 | 10 to 100 | 100 to 1000 | > 1000 | –
4 | CCOC(=O)c1cnc2[nH]ccc2c1N[C@H]1C[C@@H](NS(=O)(=O)c2cccc(C#N)c2)C1 [Example 2, cis-Ethyl 4-((3-((3-cyanophenyl)sulfonamido)cyclobutyl)amino)-1H-pyrrolo[2,3-b]pyridine-5-carboxylate] | ≤ 10 | 10 to 100 | ≤ 100 | 10 to 100 | 10 to 100 | 100 to 1000 | –
5 | CCOC(=O)c1cnc2[nH]ccc2c1NC1CC(NS(=O)(=O)c2cc(C#N)ccn2)C1 (mixture of isomers) [Example 1, ethyl 4-((3-((4-cyanopyridine)-2-sulfonamido)cyclobutyl)amino)-1H-pyrrolo[2,3-b]pyridine-5-carboxylate] | 10 to 100 | 100 to 1000 | 100 to 1000 | 100 to 1000 | 10 to 100 | > 1000 | –
6 | CCOC(=O)c1cnc2[nH]ccc2c1N[C@H]1C[C@H](NS(=O)(=O)c2cccc(C#N)c2)C1 [Example 3, trans-Ethyl 4-((3-((3-cyanophenyl)sulfonamido)cyclobutyl)amino)-1H-pyrrolo[2,3-b]pyridine-5-carboxylate] | ≤ 10 | 10 to 100 | 100 to 1000 | 10 to 100 | 10 to 100 | 100 to 1000 | –
7 | CCCS(=O)(=O)N[C@H]1C[C@@H](Nc2c(-c3nnco3)cnc3[nH]ccc23)C1 [Example 80, N-((1s,3s)-3-((5-(1,3,4-oxadiazol-2-yl)-1H-pyrrolo[2,3-b]pyridin-4-yl)amino)cyclobutyl)propane-1-sulfonamide] | 10 to 100 | 100 to 1000 | 100 to 1000 | 10 to 100 | 10 to 100 | – | > 1000
8 | CCCS(=O)(=O)N[C@H]1C[C@@H](Nc2c(-c3ncco3)cnc3[nH]ccc23)C1 [Example 65, N-((1s,3s)-3-((5-(1,3-oxazol-2-yl)-1H-pyrrolo[2,3-b]pyridin-4-yl)amino)cyclobutyl)propane-1-sulfonamide] | ≤ 10 | 10 to 100 | ≤ 100 | ≤ 10 | 10 to 100 | – | > 1000
9 | Cc1nnc(-c2cnc3[nH]ccc3c2N[C@H]2C[C@@H](NS(=O)(=O)c3cc(C#N)ccn3)C2)o1 [Example 83, 4-cyano-N-((1s,3s)-3-((5-(5-methyl-1,3,4-oxadiazol-2-yl)-1H-pyrrolo[2,3-b]pyridin-4-yl)amino)cyclobutyl)pyridine-2-sulfonamide] | 100 to 1000 | > 1000 | – | 100 to 1000 | > 1000 | – | –
